Key:
Experiment in all cases: Fecal microbiota analysis, differential abundance of taxa (MaAsLin)
Type in all cases: in vivo, human
[1] = tested on: Bacillaceae; conditions: after GLU intake compared to baseline (GLU (Pre)), p=0.038
Description: (§1) To determine significant differences between bacterial alpha diversity metrics (the measure of microbiome diversity within a single sample), a paired t-test was used between alpha diversity values of different sample groups (p<0.05). Significant differences in beta diversity (the measure of similarity or dissimilarity of multiple samples) between groups was determined using the qiime diversity beta-group-significance command in QIIME2 as well, which performs pairwise Permutational Multivariate Analysis of Variance (PERMANOVA) tests on beta diversity distance matrices (p<0.05). Differential abundance of taxa between sample groups were evaluated using Multivariate Analysis by Linear Models (MaAsLin) in R version 4.0.2 using the Maaslin2 command in the Maaslin2 R library on rarified taxonomy data generated by QIIME2 (p<0.05). […]
(§2) A fecal microbiota analysis was further conducted. […] The Qubit Fluorometer (Thermo Fisher Scientific, San Francisco, Calif.) was used to quantify PCR product concentrations prior to combining the PCR products in equal quantities for purification with the Wizard SV Gel and PCR Cleanup kit (Promega, Madison, Wis.). […] Library purity and concentration was measured on a 2100 Bioanalyzer System (Agilent Technologies, Santa Clara, Calif.). […]
(§3) Ion Torrent BAM files of raw DNA sequencing data were converted to the FASTQ format using BEDTools and then analyzed using Quantitative Insights into Microbiology (QIIME2) version 2019.10. Reads shorter than 200 bp in length were removed. […] Multiple sequence Alignment using Fast Fourier Transform (MAFFT) was used for read alignment, while gapped and unconserved alignments were filtered using the alignment mask plugin. […] Sequences of mitochondria and chloroplast origin were filtered from downstream analysis, leaving a total of 1,391,259 total high-quality reads associated with taxonomic annotations. Samples were rarified to 7,874 reads for alpha and beta diversity analysis. […]

[2] = tested on: Pseudomonadaceae; conditions: after GLU intake compared to baseline (GLU (Pre)), p=0.014
Description: as §1, §2, §3

[3] = tested on: Peptococcaceae; conditions: after GLU intake compared to baseline (GLU (Pre)), p=0.021
Description: as §1, §2, §3

For `Cl.N[C@H]1C(O)O[C@H](CO)[C@@H](O)[C@@H]1O` (stereo partly drawn) [GLU, glucosamine hydrochloride], the “Proportion of Bacillaceae” value [1] was “not detected”, the “Proportion of Pseudomonadaceae, Log2 FC” value [2] was −1.05 and the “Proportion of Peptococcaceae, Log2 FC” value [3] was −4.52.

Source: patent publication US20220395522A1, “Methods of Use of Glucosamine for Increasing Nitrogen Retention” (TSI Bioproducts (Xuzhou) Co., Ltd., priority 2021, published 2022)
